Measured values from patent publication US20130064931A1, “INGREDIENT DELIVERY SYSTEM” (FIRMENICH SA, priority 2010, published 2013).

How the values were obtained:
[1] = Photostability of compound 1 under UV (xenon lamp) irradiation, HPLC/UV-DAD measurement; type: physicochemical; settings: for % remaining (compound 1) / HPLC % remaining: 25 ppm compound 1 in water; for % remaining (compound 1): irradiated 120 min; for Time for complete degradation: compound 1 in water, HPLC % remaining reached 0; for photodegradation protection of compound 1 (in words): Example 8, anionic and cationic surfactants
Method: (§1) The photostability of compound 1 under UV irradiation was studied as follows.
(§2) The sample to be irradiated was introduced into a transparent glass bottle, placed on a plate and then subjected to irradiation with a xenon lamp (Xenon lamp Suntest XLS+, Atlas Material Testing Technology LLC). The lamp was set to 650 W/m^2, the temperature was kept constant at 45° C. and the plate was turned slowly in order to assure homogeneous UV-exposure of the entire sample. After a fixed interval, the sample was removed and the content of compound 1 remaining was measured by HPLC and Fluorimetry.
Firstly, a standard solution containing 26.44 mg caffeine in 11 LC-MS grade methanol was prepared. For samples containing 10 ppm of compound 1, the sample was placed in a vial, diluted to 500 μl and 50 μl of the standard solution was added; for samples containing 25 ppm of compound 1, the sample was placed in a vial, diluted to 400 μl and 200 μl of the standard solution was added. Each vial was protected from exposure to light by being wrapped in aluminium foil.
The relative content of compound 1 in irradiated samples was calculated against the non-irradiated reference (set at 100%) using an Agilent Technologies 1200 series HPLC equipped with a degasser G1379B, a binary pump G1312B (large-volume mixer was by-passed), a well-plate high performance autosampler G1367D, a thermostatted column compartment G1316B and a UV (DAD) detector G1315C. The column (ZORBAX Eclipse Plus C18 600Bar 2.1×100 mm, 1.8 μm (#959764-902) was set at 60° C.±0.1° C. Two solvents were used: Solvent “A” was formic acid 0.1% in water, ULC/MS, Biosolve (ready-mix cat.# 23244102); solvent “B” was formic acid 0.1% in acetonitrile, ULC/MS, Biosolve (ready-mix cat. #01934125). The solvent flow rate was 0.500 ml/min; Injection: 2 μl.
Solvent gradient: 0 min-1 min: 95% A • 1 min-8 min: 95% A à 100% B • 8 min-10 min: 100% B • 10 min-12 min: 100% B à 95% A • Post-equilibration 1 min
Detector: UV-DAD: • Caffeine (internal standard): signal 273 nm, Bw 16 • Compound 1: signal 264 nm, Bw 8 • signal 230 nm, Bw 8
The signal at 264 nm was used for the quantification calculations.

[2] = Photostability of compound 1 under UV (xenon lamp) irradiation, fluorimetry measurement; type: physicochemical; settings: 25 ppm compound 1 in water
Method: as §1, §2
The sample to be studied was placed in quartz cell (width lcm). Fluorescence was detected at an angle 90° to the incident exciting beam using a Fluorolog-3 spectrofluorometer (Model FL3-22, Jobin Yvon-Spex Instruments SA, Inc). […] Excitation and emission spectra of each sample were provided.
For calibration, the excitation and emission spectra of compound 1 solutions were measured before and after irradiation. The intensity of the emission maximum of the unirradiated solution was given the value as 100%. The ratio between the intensities of emission maxima of irradiated and unirradiated samples was measured and the results calculated as a percentage.

CCCNC(=O)C(C)(C)COc1cccc2c1C(N)=NS(=O)(=O)N2 [Compound 1]
% remaining (compound 1) ([1]; Polysorbate 80 concentration 0.0001572 % w/w): 0% | % remaining (compound 1) ([1]; Polysorbate 80 concentration 0.0002145 % w/w): 0% | % remaining (compound 1) ([1]; Polysorbate 80 concentration 0.001572 % w/w): 0% | % remaining (compound 1) ([1]; Polysorbate 80 concentration 0.008 % w/w): 0% | % remaining (compound 1) ([1]; Polysorbate 80 concentration 0.01 % w/w): 0% | % remaining (compound 1) ([1]; Polysorbate 80 concentration 0.05 % w/w): 6.55% | % remaining (compound 1) ([1]; Polysorbate 80 concentration 0.1 % w/w): 6.81% | % remaining (compound 1) ([1]; Polysorbate 80 concentration 0.5 % w/w): 12.97% | % remaining (compound 1) ([1]; Polysorbate 80 concentration 1 % w/w): 22.24% | % remaining (compound 1) ([1]; Polysorbate 80 concentration 4 % w/w): 47% | % remaining (compound 1) ([1]; Polysorbate 80 concentration 8.5 % w/w): 88.57% | % remaining (compound 1) ([1]; Polysorbate 80 concentration 15 % w/w): 97.03% | HPLC % remaining ([1]; time of irradiation 0 min (non-irradiated reference set at 100%)): 100% | HPLC % remaining ([1]; time of irradiation 5 min): 79.7% | HPLC % remaining ([1]; time of irradiation 10 min): 62.2% | HPLC % remaining ([1]; time of irradiation 20 min): 46.3% | HPLC % remaining ([1]; time of irradiation 30 min): 32.3% | HPLC % remaining ([1]; time of irradiation 45 min): 24.8% | HPLC % remaining ([1]; time of irradiation 60 min): 18.7% | HPLC % remaining ([1]; time of irradiation 90 min): 6.9% | HPLC % remaining ([1]; time of irradiation 120 min): 0% | HPLC % remaining ([1]; time of irradiation 180 min): 0% | Time for complete degradation ([1]; initial concentration 5 ppm): 45 min | Time for complete degradation ([1]; initial concentration 10 ppm): 60 min | Time for complete degradation ([1]; initial concentration 15 ppm): 90 min | Time for complete degradation ([1]; initial concentration 25 ppm): 120 min | Time for complete degradation ([1]; initial concentration 40 ppm): >180 min | Fluorimetry % remaining ([2]; time of irradiation 0 min (unirradiated solution given the value 100%)): 100% | Fluorimetry % remaining ([2]; time of irradiation 5 min): 91.3% | Fluorimetry % remaining ([2]; time of irradiation 10 min): 78.5% | Fluorimetry % remaining ([2]; time of irradiation 20 min): 52.2% | Fluorimetry % remaining ([2]; time of irradiation 30 min): 38.7% | Fluorimetry % remaining ([2]; time of irradiation 45 min): 27.8% | Fluorimetry % remaining ([2]; time of irradiation 60 min): 21.3% | Fluorimetry % remaining ([2]; time of irradiation 90 min): 16.2% | Fluorimetry % remaining ([2]; time of irradiation 120 min): 12.7% | Fluorimetry % remaining ([2]; time of irradiation 180 min): 6.4%

CCCCCCCCCCCCOS(=O)(=O)[O-].[Na+] [SDS, Sodium dodecyl sulphate, reference compound]
photodegradation protection of compound 1 (in words) [1]: little or no photodegradation protection

CCCCCCCCCCCCCCCC[N+](C)(C)C.[Br-] [CTAB, Cetyl trimethylammonium bromide, reference compound]
photodegradation protection of compound 1 (in words) [1]: little or no photodegradation protection
